Assay results as given in patent publication US20240041976A1, “COMPOSITION AND USE” (priority 2020, published 2024).
No end group written: not given here.

B1: Garvicin KS: three-peptide leaderless bacteriocin (GarA, GarB, GarC; SEQ ID NO:6-8), peptides synthesized (peptide, listed as Lactococcus garvieae)
chain 1: MGAIIKAGAKIVGKGVLGGGASWLGWNVGEKIWK
chain 2: MGAIIKAGAKIIGKGLLGGAAGGATYGGLKKIFG
chain 3: MGAIIKAGAKIVGKGALTGGGVWLAEKLFGGK

How the values were obtained:
[1] = tested on: S. aureus ATTC 33591 biofilm; assay: LIVE/DEAD biofilm staining, confocal microscopy; assay type: cell-based, Staphylococcus aureus; settings: data not shown
[2] = tested on: three MRSA strains (ATCC33591-lux, USA-300 and MRSA 43484); assay: AAMP assay and checkerboard synergy, summary; assay type: cell-based, Staphylococcus aureus
Method: Briefly, equal amounts of antimicrobial A were applied on microtiter plate 1 in wells A1-H1 and then diluted two-fold to wells 2-12. Similarly, equal amounts of antimicrobial B were applied on microtiter plate 2 in wells A1-A12 and diluted two-fold in wells B-H. Volumes of 50 μl of antimicrobial A from each well of microtiter plate 1 were transferred into microtiter plate 3, except for wells H1-H12. Similarly, the same volumes were transferred from microtiter plate 2 into plate 3, except for wells A1-A8. […] A 50 μl volume of pure broth was added into each well in lines H1-H12 and A1-A8 which were used to estimate MIC values of pure substances (blank).
Three-component synergy was assessed by mixing the three components (100 μg of PenG, 50 μg of GarKS and 2.5 μg of MP1) into one well of a microtiter plate, compared with activity of individual antimicrobials on the same plate.

S. aureus biofilms = assay: BOAT followed by CFU counting; assay type: cell-based, Staphylococcus aureus; settings: 5 mg/ml garvicin KS, 0.1 mg/ml micrococcin P1, 10 mg/ml penicillin G
Method: The procedure for the BOAT assay was repeated as described above except that instead of adding the TTC solution, the antimicrobial-challenged cells were resuspended in TSB and then serially diluted in TSB buffer. Serial dilutions of the bacterial cells were than plated on BHI agar plates and incubated at 37° C. for 24 h. The results were then assessed by direct counting of the developed colonies and the colony forming unit (CFU) was determined.

[3] = tested on: S. haemolyticus strains 4068-4073; assay: microbe, parasite or virus in culture; assay type: cell-based; settings: 5 hour incubation
Method: Bacteriocins and antimicrobial assays. K1-EJ and garvicin KS peptides (Gak-A, -B and -C) were synthesized by Pepmic Co., Ltd, China, with >95% purity. These bacteriocins were all solubilized in 0.1% (vol/vol) trifluoracetic acid (TFA; Sigma-Aldrich). Micrococcin P1 was purchased from Cayman Chemical, Michigan, USA with 95% purity and solubilized in a 50% (v/v) mixture of isopropanol (Merck) […] (Sigma-Aldrich) at a stock concentration of 1 mg/ml. Cell growth inhibition assays and antimicrobial synergy determination was performed in line with Example 1.
To investigate whether there was synergy between the three bacteriocins (K1-EJ, GarKS and MP1), a checkboard antimicrobial assay was performed. The selected strains were treated for 5, 24 and 48 h with a range of concentrations of K1-EJ, GarKS and MP1 alone or in different combinations. […] Double combinatorial treatments (GarKS/MP1; K1-EJ/GarKS; K1-EJ/MP1) increased the antimicrobial activity of the bacteriocins. […] This was particularly evident at the 24 and 48 h time-points.

S. haemolyticus 4071 = assay: microbe, parasite or virus in culture
[4] = tested on: lactococci, listeria and enterococci; assay: MIC against other indicators (data not shown); assay type: cell-based
Method: Antimicrobial activity was measured using the AAMP assay (Wiegand et al., 2008, Nat. Protoc., Vol. 3(2), p 163-175).

[5] = triple combination PenG, GarKS and MP1
[6] = 4071, 24 h, K1-EJ + GarKS + MP1
[7] = 4071, 48 h, K1-EJ + GarKS + MP1

| Molecule | LIVE/DEAD staining pattern [1] | MIC of the antimicrobial in comb. with GarKS ([2]; All three strains) [µg/mL] | MIC of the component when combined ([2]; MP1 with PenG) [µg/mL] | reduction of MIC when combined ([2]; MP1 with PenG) | MIC of the component when combined [2, 5] [µg/mL] | reduction of MIC when combined [2, 5] | cell viability, LogCFU after BOAT (S. aureus biofilms) | MIC of the component in combination (S. haemolyticus 4071; 4071, 5 h, K1-EJ + GarKS) [µg/mL] | MIC of the component in combination (S. haemolyticus 4071; 4071, 5 h, K1-EJ + GarKS + MP1) [µg/mL] | MIC of the component in combination (S. haemolyticus 4071; 4071, 5 h, K1-EJ + MP1) [µg/mL] | MIC of the component in combination (S. haemolyticus 4071; 4071, 24 h, K1-EJ + GarKS) [µg/mL] | MIC of the component in combination (S. haemolyticus 4071; [6]) [µg/mL] | MIC of the component in combination (S. haemolyticus 4071; 4071, 24 h, K1-EJ + MP1) [µg/mL] | MIC of the component in combination (S. haemolyticus 4071; 4071, 48 h, K1-EJ + GarKS) [µg/mL] | MIC of the component in combination (S. haemolyticus 4071; [7]) [µg/mL] | MIC of the component in combination (S. haemolyticus 4071; 4071, 48 h, K1-EJ + MP1) [µg/mL] | MIC values, range [4] [µg/mL] | MIC of the component when GarKS and MP1 are combined ([2]; checkerboard assay) [µg/mL] | MIC of the component in combination (S. haemolyticus 4071; 4071, 5 h, GarKS + MP1) [µg/mL] | MIC of the component in combination (S. haemolyticus 4071; 4071, 24 h, GarKS + MP1) [µg/mL] | also measured |
| --- | --- | --- | --- | --- | --- | --- | --- | --- | --- | --- | --- | --- | --- | --- | --- | --- | --- | --- | --- | --- | --- |
| CC1(C)S[C@@H]2[C@H](NC(=O)Cc3ccccc3)C(=O)N2[C@H]1C(=O)O [Penicillin G] | increased resistance | 16 | 16 to 32 | 80-150 times | 8 | more than 300 times | reduction in the viability of the non-MRSA strains |  |  |  |  |  |  |  |  |  |  |  |  |  | MIC of GarKS in comb. antibiotic/GarKS/MP1 ([2]; All three strains): 4 µg/mL; MIC of MP1 in comb. antibiotic/GarKS/MP1 ([2]; All three strains): 0.08 µg/mL; MIC of MP1 in comb. with the labelled antibiotic ([2]; All three strains): 0.16 to 0.3 µg/mL; MIC of the antibiotic in comb. with GarKS and MP1 ([2]; All three strains): 8 µg/mL; MIC of the antibiotic in comb. with MP1 ([2]; All three strains): 16 to 32 µg/mL; MIC of the component when combined ([2]; GarKS with Amp or PenG): 16 µg/mL; MIC ([2]; Staphylococcus aureus, 24 h, All three strains, read-out: MIC, single antimicrobial): > 2500 µg/mL; synergy with GarKS ([2]; checkerboard assay): moderate synergy |
| MKFKFNPTGTIVKKLTQYEINWYKQQYGRYPWERPVA [Hybrid K1-EJ] |  |  |  |  |  |  |  | 1.6 | 0.72 | 0.42 | 12 | 1.6 | 1.4 | 24 | 3.3 | 3 |  |  |  |  | MIC50 values over strains [3]: 0.78 µg/mL; MIC (S. haemolyticus 4071; 4071, 5 h): 0.78 µg/mL; MIC (S. haemolyticus 4071; 4071, 24 h): >100 µg/mL; MIC (S. haemolyticus 4071; 4071, 48 h): >100 µg/mL |
| C/C=C(\NC(=O)c1csc(-c2csc(-c3ccc4c(n3)-c3csc(n3)[C@H]([C@@H](C)O)NC(=O)c3csc(n3)[C@H](C(C)C)NC(=O)c3csc(n3)/C(=C/C)NC(=O)[C@H]([C@@H](C)O)NC(=O)c3csc-4n3)n2)n1)C(=O)NC[C@@H](C)O [MP1, micrococcin P1] |  | 0.16 | 0.16 to 0.3 | 8-16 times | 0.08 | about 30 times |  |  | 0.072 | 0.042 |  | 0.16 | 0.14 |  | 0.33 | 0.3 | 1 to 10 | 0.16 | 0.068 | 0.63 | MIC50 ([3]; Staphylococcus haemolyticus, STRAINS40684073, read-out: MIC50 values over strains): 0.02 to 0.15 µg/mL; MIC of the component in combination (S. haemolyticus 4071; 4071, 48 h, GarKS + MP1): 0.65 µg/mL; MIC (S. haemolyticus 4071; Staphylococcus haemolyticus, 4071, 5 h): 0.043 µg/mL; MIC (S. haemolyticus 4071; Staphylococcus haemolyticus, 4071, 24 h): > 10 µg/mL; MIC (S. haemolyticus 4071; Staphylococcus haemolyticus, 4071, 48 h): > 10 µg/mL |
| B1 | increased resistance |  |  |  | 4 | about 8 times | most dramatic reduction in LogCFU levels for all the strains | 1.6 | 0.72 |  | 12 | 1.6 |  | 24 | 3.3 |  | 1 to 20 | 8 | 0.68 | 6.3 | reduction of MIC when combined ([2]; GarKS with Amp or PenG): 4 times; MIC (S. haemolyticus 4071; 4071, 5 h, individual component): 12.5 µg/mL; MIC (S. haemolyticus 4071; 4071, 24 h, individual component): 51 µg/mL; MIC of the component in combination (S. haemolyticus 4071; 4071, 48 h, GarKS + MP1): 6.5 µg/mL; MIC (S. haemolyticus 4071; 4071, 48 h, individual component): 100 µg/mL |
